# From PubChem BioAssay (NCI)
#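 These data come from cells grown in 96-well plates and exposed to compound for 48 hours at five concentrations. The concentration for full growth arrest is given as TGI.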
# Tests used:
# Assay in all cases: inhibition of tumour cell growth, NCI panel, 48 h
# 786-0 renal = tested on: 786-0 renal
# A498 renal = tested on: A498 renal
# A549 NSCLC = tested on: A549 NSCLC
# ACHN renal = tested on: ACHN renal
# CAKI-1 renal = tested on: CAKI-1 renal
# CCRF-CEM leukemia = tested on: CCRF-CEM leukemia
# COLO 205 colon = tested on: COLO 205 colon
# DLD-1 colon = tested on: DLD-1 colon
# DMS 114 small cell lung = tested on: DMS 114 small cell lung
# DMS 273 small cell lung = tested on: DMS 273 small cell lung
# EKVX NSCLC = tested on: EKVX NSCLC
# HCC-2998 colon = tested on: HCC-2998 colon
# HCT-116 colon = tested on: HCT-116 colon
# HCT-15 colon = tested on: HCT-15 colon
# HL-60(TB) leukemia = tested on: HL-60(TB) leukemia
# HOP-18 NSCLC = tested on: HOP-18 NSCLC
# HOP-62 NSCLC = tested on: HOP-62 NSCLC
# HOP-92 NSCLC = tested on: HOP-92 NSCLC
# HT29 colon = tested on: HT29 colon
# IGROV1 ovarian = tested on: IGROV1 ovarian
# K-562 leukemia = tested on: K-562 leukemia
# KM12 colon = tested on: KM12 colon
# KM20L2 colon = tested on: KM20L2 colon
# LOX IMVI melanoma = tested on: LOX IMVI melanoma
# LXFL 529 NSCLC = tested on: LXFL 529 NSCLC
# M14 melanoma = tested on: M14 melanoma
# M19-MEL melanoma = tested on: M19-MEL melanoma
# MALME-3M melanoma = tested on: MALME-3M melanoma
# MOLT-4 leukemia = tested on: MOLT-4 leukemia
# NCI-H226 lung = tested on: NCI-H226 lung
# NCI-H23 lung = tested on: NCI-H23 lung
# NCI-H460 lung = tested on: NCI-H460 lung
# NCI-H522 lung = tested on: NCI-H522 lung
# OVCAR-3 ovarian = tested on: OVCAR-3 ovarian
# OVCAR-4 ovarian = tested on: OVCAR-4 ovarian
# OVCAR-5 ovarian = tested on: OVCAR-5 ovarian
# OVCAR-8 ovarian = tested on: OVCAR-8 ovarian
# RPMI-8226 leukemia = tested on: RPMI-8226 leukemia
# RXF 393 renal = tested on: RXF 393 renal
# RXF-631 renal = tested on: RXF-631 renal
# SF-268 CNS = tested on: SF-268 CNS
# SF-295 CNS = tested on: SF-295 CNS
# SF-539 CNS = tested on: SF-539 CNS
# SK-MEL-2 melanoma = tested on: SK-MEL-2 melanoma
# SK-MEL-28 melanoma = tested on: SK-MEL-28 melanoma
# SK-MEL-5 melanoma = tested on: SK-MEL-5 melanoma
# SK-OV-3 ovarian = tested on: SK-OV-3 ovarian
# SN12C renal = tested on: SN12C renal
# SNB-19 CNS = tested on: SNB-19 CNS
# SNB-75 CNS = tested on: SNB-75 CNS
# SW-620 colon = tested on: SW-620 colon
# TK-10 renal = tested on: TK-10 renal
# U251 CNS = tested on: U251 CNS
# UACC-62 melanoma = tested on: UACC-62 melanoma
compound,measurement,setting,value
Cc1cc(=O)oc2cc(OCc3nc4ccccc4c(=O)n3-c3ccccc3)ccc12,TGI,786-0 renal,> 100 µM
same,TGI,A498 renal,> 100 µM
same,TGI,A549 NSCLC,> 100 µM
same,TGI,ACHN renal,> 100 µM
same,TGI,CAKI-1 renal,> 100 µM
same,TGI,CCRF-CEM leukemia,> 100 µM
same,TGI,COLO 205 colon,> 100 µM
same,TGI,DLD-1 colon,> 100 µM
same,TGI,DMS 114 small cell lung,> 100 µM
same,TGI,DMS 273 small cell lung,> 100 µM
same,TGI,EKVX NSCLC,> 100 µM
same,TGI,HCC-2998 colon,> 100 µM
same,TGI,HCT-116 colon,> 100 µM
same,TGI,HCT-15 colon,> 100 µM
same,TGI,HL-60(TB) leukemia,> 100 µM
same,TGI,HOP-18 NSCLC,> 100 µM
same,TGI,HOP-62 NSCLC,> 100 µM
same,TGI,HOP-92 NSCLC,96.4 µM
same,TGI,HT29 colon,> 100 µM
same,TGI,IGROV1 ovarian,> 100 µM
same,TGI,K-562 leukemia,> 100 µM
same,TGI,KM12 colon,> 100 µM
same,TGI,KM20L2 colon,> 100 µM
same,TGI,LOX IMVI melanoma,> 100 µM
same,TGI,LXFL 529 NSCLC,> 100 µM
same,TGI,M14 melanoma,> 100 µM
same,TGI,M19-MEL melanoma,> 100 µM
same,TGI,MALME-3M melanoma,> 100 µM
same,TGI,MOLT-4 leukemia,> 100 µM
same,TGI,NCI-H226 lung,> 100 µM
same,TGI,NCI-H23 lung,> 100 µM
same,TGI,NCI-H460 lung,> 100 µM
same,TGI,NCI-H522 lung,> 100 µM
same,TGI,OVCAR-3 ovarian,> 100 µM
same,TGI,OVCAR-4 ovarian,> 100 µM
same,TGI,OVCAR-5 ovarian,> 100 µM
same,TGI,OVCAR-8 ovarian,> 100 µM
same,TGI,RPMI-8226 leukemia,> 100 µM
same,TGI,RXF 393 renal,> 100 µM
same,TGI,RXF-631 renal,> 100 µM
same,TGI,SF-268 CNS,> 100 µM
same,TGI,SF-295 CNS,> 100 µM
same,TGI,SF-539 CNS,> 100 µM
same,TGI,SK-MEL-2 melanoma,> 100 µM
same,TGI,SK-MEL-28 melanoma,> 100 µM
same,TGI,SK-MEL-5 melanoma,> 100 µM
same,TGI,SK-OV-3 ovarian,> 100 µM
same,TGI,SN12C renal,> 100 µM
same,TGI,SNB-19 CNS,97.7 µM
same,TGI,SNB-75 CNS,46.7 µM
same,TGI,SW-620 colon,> 100 µM
same,TGI,TK-10 renal,> 100 µM
same,TGI,U251 CNS,> 100 µM
same,TGI,UACC-62 melanoma,> 100 µM
